The results in this text go back to patent US8399440B2, “Disease modifying anti-arthritic activity of 2-methoxyestradiol” (EntreMed, Inc., priority 2006, dated 2013).

The data set has as its system Arthrogen Collagen MAb-Induced Arthritis. Briefly: Arthrogen collagen MAb-induced arthritis (Arthrogen-CIA model of RA). It is filed as in vivo, Mouse (Balb/C). Conditions: Study SMP05-046; either drug alone (2ME2 10 or 100 mg/kg/d PO; MTX 0.1 or 1 mg/kg/d IP).

Each structure is given as a SMILES string.

For the compound `CN(Cc1cnc2nc(N)nc(N)c2n1)c1ccc(C(=O)N[C@@H](CCC(=O)O)C(=O)O)cc1` [MTX, methotrexate, reference compound], the “pathology in the liver” value is “No pathology”.
